# Source: the supplement of paper PMC10307832
# What was measured:
# Assay in all cases: relative viability (nuclei count vs DMSO), 5 days (fraction); higher = more cells survive
# QS11 + Alpelisib = compound: C1CC2=C(C1)C=C(C=C2)OC3=NC(=C4C(=N3)N(C=N4)CC5=CC=C(C=C5)C6=CC=CC=C6)N[C@@H](CC7=CC=CC=C7)CO [QS11] + Cc1nc(NC(=O)N2CCC[C@H]2C(N)=O)sc1-c1ccnc(C(C)(C)C(F)(F)F)c1 [Alpelisib] (partner 2 µM)
# Procedure, shortened: (§1)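 One day after seeding in 1536-well plates, lung cancer cell lines were dosed by pin tool. Dosing was either single-drug or a fixed anchor-drug dose plus five library-drug doses (not always all listed) in √10 steps. After 5 days, nuclei were stained in one fix-and-stain step and counted on 4× images, and relative viability is the nuclei count of treated wells over that of vehicle wells, given as the median of duplicate plates.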
# AZ628 + Trametinib = compound: CC1=C(C=C(C=C1)NC(=O)C2=CC(=CC=C2)C(C)(C)C#N)NC3=CC4=C(C=C3)N=CN(C4=O)C [AZ628] + CC(=O)Nc1cccc(-n2c(=O)n(C3CC3)c(=O)c3c(Nc4ccc(I)cc4F)n(C)c(=O)c(C)c32)c1 [Trametinib] (partner 0.02 µM)
# Procedure, shortened: as §1
# AZ628 + Vorinostat = compound: CC1=C(C=C(C=C1)NC(=O)C2=CC(=CC=C2)C(C)(C)C#N)NC3=CC4=C(C=C3)N=CN(C4=O)C [AZ628] + O=C(CCCCCCC(=O)Nc1ccccc1)NO [Vorinostat] (partner 1 µM)
# Procedure, shortened: as §1
# Darinaparsin + Dasatinib = compound: C[As](C)SC[C@H](NC(=O)CC[C@H](N)C(=O)O)C(=O)NCC(=O)O [Darinaparsin] + Cc1nc(Nc2ncc(C(=O)Nc3c(C)cccc3Cl)s2)cc(N2CCN(CCO)CC2)n1 [Dasatinib] (partner 0.075 µM)
# Procedure, shortened: as §1
Cell Line,relative viability (QS11 + Alpelisib; first compound 0.08 µM),relative viability (QS11 + Alpelisib; first compound 0.253 µM),relative viability (QS11 + Alpelisib; first compound 0.8 µM),relative viability (QS11 + Alpelisib; first compound 2.53 µM),relative viability (QS11 + Alpelisib; first compound 8 µM),relative viability (AZ628 + Trametinib; first compound 0.08 µM),relative viability (AZ628 + Trametinib; first compound 0.253 µM),relative viability (AZ628 + Trametinib; first compound 0.8 µM),relative viability (AZ628 + Trametinib; first compound 2.53 µM),relative viability (AZ628 + Trametinib; first compound 8 µM),relative viability (AZ628 + Vorinostat; first compound 0.08 µM),relative viability (AZ628 + Vorinostat; first compound 0.253 µM),relative viability (AZ628 + Vorinostat; first compound 0.8 µM),relative viability (AZ628 + Vorinostat; first compound 2.53 µM),relative viability (AZ628 + Vorinostat; first compound 8 µM),relative viability (Darinaparsin + Dasatinib; first compound 0.08 µM),relative viability (Darinaparsin + Dasatinib; first compound 0.8 µM),relative viability (Darinaparsin + Dasatinib; first compound 2.53 µM),relative viability (Darinaparsin + Dasatinib; first compound 8 µM)
NCI-H2023,0.678,0.597,0.619,0.747,0.722,0.402,0.338,0.203,0.237,0.183,0.825,0.61,0.542,0.636,0.405,0.724,0.656,0.352,0.729
NCI-H2085,0.922,1,1.02,1.06,1.12,0.502,0.479,0.628,0.601,0.481,0.845,0.788,0.891,0.826,0.736,0.238,0.25,0.235,0.223
NCI-H2087,1.18,1.02,0.95,0.743,0.858,0.18,0.191,0.161,0.152,0.184,1.02,0.723,0.743,0.527,0.148,1.11,0.906,0.793,1.52
NCI-H2126,0.74,0.794,0.708,0.75,0.731,0.559,0.512,0.498,0.562,0.481,0.862,0.786,0.642,0.729,0.703,0.56,0.616,0.556,0.681
NCI-H2170,0.785,0.907,0.833,0.791,1.16,0.872,0.897,0.799,0.807,0.583,0.804,0.833,0.786,0.837,0.905,0.65,0.612,0.481,0.647
NCI-H2228,0.705,0.854,0.762,1.14,1.11,0.34,0.316,0.263,0.129,0.12,0.697,0.684,0.644,0.507,0.432,0.71,0.606,0.447,0.686
NCI-H2347,1.11,1.06,0.929,0.918,1.21,0.233,0.277,0.261,0.256,0.27,0.46,0.642,0.447,0.439,0.335,0.286,–,0.306,0.289
NCI-H2405,0.709,0.745,0.884,0.998,0.902,0.387,0.319,0.277,0.286,0.313,0.884,0.8,0.69,0.707,0.586,0.203,0.232,0.223,0.221
NCI-H3122,0.879,1,0.745,1.12,0.839,0.157,0.143,0.159,0.138,0.132,0.932,0.921,0.737,0.768,0.496,0.998,0.73,0.71,0.968
PC-3 [JPC-3],1.07,0.998,1.1,1.05,1.03,0.685,0.579,0.647,0.574,0.386,1.15,0.7,0.891,0.793,0.709,1.11,1,0.826,1.01
PC-14,1.08,0.982,0.911,1.01,1.02,0.441,0.301,0.205,0.178,0.195,0.762,0.745,0.632,0.677,0.232,0.189,0.24,0.245,0.211
RERF-LC-KJ,0.851,0.779,0.928,0.675,0.852,0.762,0.719,0.824,0.835,0.736,0.779,0.735,0.741,0.677,0.656,0.916,0.87,0.621,0.758
SK-LU-1,1.14,0.934,0.917,0.774,0.712,0.325,0.323,0.257,0.248,0.248,0.595,0.896,0.726,0.758,0.611,0.173,0.107,0.173,0.183
SK-MES-1,0.997,0.919,0.918,0.886,0.849,0.32,0.318,0.308,0.262,0.369,1.07,1.18,1.04,1.1,0.572,0.284,0.258,0.344,0.345
SW 1573,0.844,0.656,0.772,0.741,0.718,0.443,0.346,0.334,0.3,0.329,1.01,0.641,0.592,0.575,0.508,0.498,0.625,0.299,0.656
UMC-11,0.939,1.15,1.01,1.08,1.02,0.713,0.764,0.734,0.691,0.693,0.442,0.336,0.361,0.328,0.36,0.711,0.473,0.401,0.578
